Data reported in US20240102057A1, “METHODS AND COMPOSITIONS USEFUL FOR THE PRODUCTION OF 4-VINYLPHENOL” (THE REGENTS OF THE UNIVERSITY OF CALIFORNIA, priority 2022, published 2024).

Assays:
E. coli (Ec) = assay: Growth (cell density) in tryptic soy broth supplemented with 4VP or CA; format: cell-based, Escherichia coli; details: Ec and Ec PAD, 24 h, FIG. 1c, f
Experimental: (§1) To test whether the PAD strains were able to convert CA to 4VP and evaluate their tolerance to different concentrations of substrate and product, growth experiments were performed in tryptic soy broth supplemented with 0.25 or 0.5 g/L of 4VP, or 1, 5 or 10 g/L of CA. This rich medium was used to provide all the organisms with glucose and amino acids for growth and cell maintenance and allow for continuous PAD protein production during the 4VP production process. The bacterial cell density was measured at the time of inoculation and after 24 h of incubation, and PAD expression was induced at the beginning of the cultivations.
(§2) Cultivations were performed in 48-well flat bottom clear plates (Corning, USA) when an organic overlay was not added, in 48-well FlowerPlates (m2p, Germany) when an overlay was added to rich medium, and in 14 mL round-bottom plastic tubes for lignin liquors with an overlay. Seed cultures of all strains listed in Table 1 were started by inoculating cells from agar plates into tubes with 5 mL of tryptic soy broth and incubating at 30° C. with vigorous shaking for 12 h. For the experiments in the clear plates, inocula were prepared by mixing 1 mL of the seed cultures with 9 mL of fresh tryptic soy broth and incubated for 8 h. […] The optical density at 595 nm was measured using a DTX880 plate reader (Beckton-Coulter, USA).

all tested organisms = assay: as above; format: cell-based, E. coli, B. subtilis, C. glutamicum, B. amyloliquefaciens; details: tryptic soy broth with 0.25 or 0.5 g/L 4VP, 24 h
Experimental: as §1, §2

[1] = Distribution between aqueous phase and organic overlay in biphasic cultivations (HPLC); format: physicochemical
Source text: One example is the extraction of 4VP from the aqueous phase with octanol in a continuous flow-bed reactor containing immobilized E. coli cells. […] Therefore, we compared the performance of octanol to other mid-chain fatty alcohols with slightly longer alkane chains, decanol and undecanol, when added as overlays to the cultivation media (20% of the aqueous phase volume). To obtain high product concentrations and identify any limitations to the amount of 4VP that can be extracted with the overlays, the four recombinant strains were incubated in the presence of 25 or 75 g/L of CA.
The lignocellulose-derived CA was used to cultivate the 4VP producing strains. […] However, this culture system is not amenable for repeated sampling of aqueous and organic phases to quantify metabolites or for monitoring cell growth in the presence of overlays and dark lignin liquors. Therefore, the incubations in CA-rich liquors were performed in culture tubes in presence of an undecanol overlay, and the OD, CA and 4VP concentrations were measured at 0, 12 and 24 h after inoculation. […]
CA and 4VP were quantified by HPLC in samples taken from the aqueous and organic phases of the cultivations or lignin liquors after diluting with water (aqueous samples) or pure acetonitrile (organic samples). […]

E. coli = details: cited from earlier work; for toxicity of organic solvent to E. coli: literature reports [10, 16, 17, 25]
Cg and Cg phdA- strains = assay: Growth (cell density) in tryptic soy broth supplemented with 4VP or CA; format: cell-based, Corynebacterium glutamicum; details: 24 h, FIG. 1a, b
Experimental: as §1, §2

all Bacillus species = assay: as above; format: cell-based, Bacillus subtilis, Bacillus amyloliquefaciens; details: 24 h, FIG. 1g-i
Experimental: as §1, §2

PAD enzyme = details: literature reports [10, 16, 17, 25]; cited from earlier work
microbes = details: literature report [3]; cited from earlier work

**Q.** What does the source list for C=Cc1ccc(O)cc1 [4VP, 4-vinylphenol]?
**A.** 4VP concentration displaying growth inhibition (E. coli (Ec)): 0.25 g/L; toxicity of 4VP (all tested organisms): very toxic; share of product extracted in the organic phase ([1]; undecanol overlay, lignin liquors from corn stover residue): 97%; toxicity to E. coli relative to CA (E. coli; literature report [12]): significantly more toxic to E. coli than CA

**Q.** Which “CA concentration in the presence of which strains are able to grow (tolerance)” value (Cg and Cg phdA- strains) does the source give for O=C(O)/C=C/c1ccc(O)cc1 [CA, p-coumaric acid] here?
**A.** up to 10 g/L

**Q.** What about the “CA concentration above which strains are unable to grow” value (all Bacillus species) of the same compound?
**A.** more than 1 g/L

**Q.** What about the “share of CA not consumed found in the aqueous phase” value ([1]; octanol, decanol or undecanol overlay (20% of aqueous volume), tryptic soy broth with 25 or 75 g/L CA) of the same compound?
**A.** more than 90%

**Q.** Which results are given for CCCCCC [hexane]?
**A.** toxicity of organic solvent to E. coli (E. coli): significant toxicity; effect of organic solvent on PAD enzyme activity (PAD enzyme): inhibition

**Q.** Which results are given for CCCCCCCCO [octanol]?
**A.** toxicity of organic solvent to E. coli (E. coli): significant toxicity; effect of organic solvent on PAD enzyme activity (PAD enzyme): inhibition; toxicity of solvent to microbes (microbes): significant toxicity
